Measurements published in ChEMBL document CHEMBL1201861, “Genomics of Drug Sensitity in Cancer screening data, Wellcome Trust Sanger Institute”.

Legend:
Experiment in all cases: cells
Assay type in all cases: functional, cell-based, Homo sapiens
D-263MG = conditions: Homo sapiens, D-263MG
Description: SANGER: Inhibition of human D-263MG cell growth in a cell viability assay.

ES6 = conditions: Homo sapiens, ES6;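 also: growth inhibition of human ES6 cells, read out with a cell viability assay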
Description: SANGER: Inhibition of human ES6 cell growth in a cell viability assay.

CAS-1 = conditions: Homo sapiens, CAS-1;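 also: growth inhibition of CAS-1 cells, measured with a cell viability assay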
Description: SANGER: Inhibition of human CAS-1 cell growth in a cell viability assay.

HEL = conditions: Homo sapiens, HEL;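 also: growth inhibition of HEL cells, read out with a cell viability assay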
Description: SANGER: Inhibition of human HEL cell growth in a cell viability assay.

LU-134-A = conditions: Homo sapiens, LU-134-A
Description: SANGER: Inhibition of human LU-134-A cell growth in a cell viability assay.

PSN1 = conditions: Homo sapiens, PSN1;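 also: suppression of growth of human PSN1 cells, read out by a cell viability assay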
Description: SANGER: Inhibition of human PSN1 cell growth in a cell viability assay.

CTV-1 = conditions: Homo sapiens, CTV-1;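 also: growth inhibition of the cell line, read out with a cell viability assay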
Description: SANGER: Inhibition of human CTV-1 cell growth in a cell viability assay.

ALL-PO = conditions: Homo sapiens, ALL-PO;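 also: growth inhibition of ALL-PO cells, read out by a cell viability assay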
Description: SANGER: Inhibition of human ALL-PO cell growth in a cell viability assay.

MS-1 = conditions: Homo sapiens, MS-1;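 also: growth inhibition of MS-1 cells, read out by cell viability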
Description: SANGER: Inhibition of human MS-1 cell growth in a cell viability assay.

MFH-ino = conditions: Homo sapiens, MFH-ino;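 also: growth inhibition of human MFH-ino cells, read out by a cell viability assay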
Description: SANGER: Inhibition of human MFH-ino cell growth in a cell viability assay.

SF-126 = conditions: Homo sapiens, SF-126;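 also: growth inhibition of human SF126 cells, read out with a cell viability assay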
Description: SANGER: Inhibition of human SF126 cell growth in a cell viability assay.

BT-474 = conditions: Homo sapiens, BT-474
Description: SANGER: Inhibition of human BT-474 cell growth in a cell viability assay.

SNU1 = conditions: Homo sapiens, SNU1;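 also: growth inhibition of human NCI-SNU-1 cells, measured with a cell viability assay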
Description: SANGER: Inhibition of human NCI-SNU-1 cell growth in a cell viability assay.

NMC-G1 = conditions: Homo sapiens, NMC-G1;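 also: growth inhibition of the NMC-G1 cell line, measured with a cell viability read-out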
Description: SANGER: Inhibition of human NMC-G1 cell growth in a cell viability assay.

TE-6 = conditions: Homo sapiens, TE-6;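 also: growth inhibition of TE-6 cells, read out with a cell viability assay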
Description: SANGER: Inhibition of human TE-6 cell growth in a cell viability assay.

NCI-H526 = conditions: Homo sapiens, NCI-H526;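 also: growth inhibition of the human NCI-H526 cell line, measured by a cell viability assay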
Description: SANGER: Inhibition of human NCI-H526 cell growth in a cell viability assay.

SNU-5 = conditions: Homo sapiens, SNU-5;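 also: cell viability readout used to measure growth inhibition in human NCI-SNU-5 cells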
Description: SANGER: Inhibition of human NCI-SNU-5 cell growth in a cell viability assay.

LU-139 = conditions: Homo sapiens, LU-139
Description: SANGER: Inhibition of human LU-139 cell growth in a cell viability assay.

LB2518-MEL = conditions: Homo sapiens, LB2518-MEL;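 also: growth inhibition of human LB2518-MEL cells, measured with a cell viability assay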
Description: SANGER: Inhibition of human LB2518-MEL cell growth in a cell viability assay.

KGN = conditions: Homo sapiens, KGN;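 also: growth inhibition of KGN cells, read out with a cell viability assay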
Description: SANGER: Inhibition of human KGN cell growth in a cell viability assay.

LAN-6 = conditions: Homo sapiens, LAN-6;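 also: growth inhibition of LAN-6 cells, determined with a cell viability assay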
Description: SANGER: Inhibition of human LAN-6 cell growth in a cell viability assay.

HCC2157 = conditions: Homo sapiens, HCC2157;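 also: growth inhibition of the cancer cell line, read out as cell viability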
Description: SANGER: Inhibition of human HCC2157 cell growth in a cell viability assay.

C8166 = conditions: Homo sapiens, C8166;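 also: growth inhibition of human C8166 cells measured by a cell viability assay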
Description: SANGER: Inhibition of human C8166 cell growth in a cell viability assay.

COLO-320-HSR = conditions: Homo sapiens, COLO-320-HSR;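 also: growth inhibition of COLO-320-HSR cells, determined with a cell viability assay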
Description: SANGER: Inhibition of human COLO-320-HSR cell growth in a cell viability assay.

A253 cell line = conditions: Homo sapiens, A253;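 also: growth inhibition of A253 cells, read out with a cell viability assay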
Description: SANGER: Inhibition of human A253 cell growth in a cell viability assay.

EW-16 = conditions: Homo sapiens, EW-16;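 also: growth inhibition of human EW-16 cells, read out as cell viability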
Description: SANGER: Inhibition of human EW-16 cell growth in a cell viability assay.

COLO-824 = conditions: Homo sapiens, COLO-824
Description: SANGER: Inhibition of human COLO-824 cell growth in a cell viability assay.

HCC1187 = conditions: Homo sapiens, HCC1187;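 also: growth inhibition of HCC1187 cells, read out with a cell viability assay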
Description: SANGER: Inhibition of human HCC1187 cell growth in a cell viability assay.

TGW = conditions: Homo sapiens, TGW;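 also: growth inhibition of human TGW cells, read out with a cell viability assay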
Description: SANGER: Inhibition of human TGW cell growth in a cell viability assay.

Calu-6 = conditions: Homo sapiens, Calu-6;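 also: growth of human Calu-6 cells, read out by a cell viability assay, IC50 marking inhibition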
Description: SANGER: Inhibition of human Calu-6 cell growth in a cell viability assay.

no-11 = conditions: Homo sapiens;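 also: growth inhibition of human NO-11 cells, read out with a cell viability assay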
Description: SANGER: Inhibition of human no-11 cell growth in a cell viability assay.

A704 = conditions: Homo sapiens, A704;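 also: growth inhibition of human A704 cells, read out with a cell viability assay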
Description: SANGER: Inhibition of human A704 cell growth in a cell viability assay.

VA-ES-BJ = conditions: Homo sapiens, VA-ES-BJ;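 also: growth inhibition of the VA-ES-BJ cell line, read out by a cell viability assay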
Description: SANGER: Inhibition of human VA-ES-BJ cell growth in a cell viability assay.

HT-144 = conditions: Homo sapiens, HT-144
Description: SANGER: Inhibition of human HT-144 cell growth in a cell viability assay.

KY821 = conditions: Homo sapiens, KY821;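 also: growth inhibition of human KY821 cells, read out by a cell viability assay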
Description: SANGER: Inhibition of human KY821 cell growth in a cell viability assay.

SK-N-FI = conditions: Homo sapiens, SK-N-FI;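 also: cell viability assay measuring growth inhibition of human SK-N-FI cells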
Description: SANGER: Inhibition of human SK-N-FI cell growth in a cell viability assay.

A388 = conditions: Homo sapiens, A388;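 also: growth inhibition of human A388 cells, read out with a cell viability assay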
Description: SANGER: Inhibition of human A388 cell growth in a cell viability assay.

JAR = conditions: Homo sapiens, JAR;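 also: growth inhibition of human JAR cells determined with a cell viability assay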
Description: SANGER: Inhibition of human JAR cell growth in a cell viability assay.

KM12 = conditions: Homo sapiens, KM12;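 also: KM12 cell growth inhibition, read out with a cell viability assay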
Description: SANGER: Inhibition of human KM12 cell growth in a cell viability assay.

TE-11 = conditions: Homo sapiens, TE-11;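 also: growth inhibition of human TE-11 cells, read out by a cell viability assay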
Description: SANGER: Inhibition of human TE-11 cell growth in a cell viability assay.

NCI-H1304 = conditions: Homo sapiens, NCI-H1304;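 also: growth inhibition of the cancer cell line, measured in a cell viability assay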
Description: SANGER: Inhibition of human NCI-H1304 cell growth in a cell viability assay.

SCH = conditions: Homo sapiens, SCH;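 also: growth inhibition of human SCH cells, read out in a cell viability assay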
Description: SANGER: Inhibition of human SCH cell growth in a cell viability assay.

HCC2218 = conditions: Homo sapiens, HCC2218;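 also: cell viability assay read-out, with IC50 given as the concentration that inhibits growth of the cell line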
Description: SANGER: Inhibition of human HCC2218 cell growth in a cell viability assay.

SNU-C2B = conditions: Homo sapiens, SNU-C2B;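 also: cell viability readout used to measure compound-driven suppression of SNU-C2B cell proliferation, IC50 marking half-maximal growth inhibition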
Description: SANGER: Inhibition of human SNU-C2B cell growth in a cell viability assay.

SJSA-1 = conditions: Homo sapiens, SJSA-1;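 also: growth inhibition of human SJSA-1 cells, read out through a cell viability measurement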
Description: SANGER: Inhibition of human SJSA-1 cell growth in a cell viability assay.

EOL1 = conditions: Homo sapiens, EOL1;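 also: growth inhibition of EoL-1 cells, read out by a cell viability assay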
Description: SANGER: Inhibition of human EoL-1-cell cell growth in a cell viability assay.

CTB-1 = conditions: Homo sapiens, CTB-1
Description: SANGER: Inhibition of human CTB-1 cell growth in a cell viability assay.

NCI-H2126 = conditions: Homo sapiens, NCI-H2126;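 also: growth inhibition of the cancer cell line, determined with a cell viability readout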
Description: SANGER: Inhibition of human NCI-H2126 cell growth in a cell viability assay.

Becker = conditions: Homo sapiens, Becker;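 also: growth inhibition of Becker cells, read out with a cell viability assay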
Description: SANGER: Inhibition of human Becker cell growth in a cell viability assay.

RXF 393 = conditions: Homo sapiens, RXF 393;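 also: growth inhibition of human RXF 393 cells, read out with a cell viability assay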
Description: SANGER: Inhibition of human RXF393 cell growth in a cell viability assay.

N[C@@H](CSC(c1ccccc1)(c1ccccc1)c1ccccc1)C(=O)O [S-TRITYL-L-CYSTEINE]
IC50 (D-263MG): > 5120 nM
IC50 (ES6): > 5120 nM
IC50 (CAS-1): > 5120 nM
IC50 (HEL): 2750 nM
IC50 (LU-134-A): 4340 nM
IC50 (PSN1): 1490 nM
IC50 (CTV-1): 788 nM
IC50 (ALL-PO): 2250 nM
IC50 (MS-1): 2470 nM
IC50 (MFH-ino): 471 nM
IC50 (SF-126): 3010 nM
IC50 (BT-474): > 5120 nM
IC50 (SNU1): > 5120 nM
IC50 (NMC-G1): 3400 nM
IC50 (TE-6): 3900 nM
IC50 (NCI-H526): 4450 nM
IC50 (SNU-5): > 5120 nM
IC50 (LU-139): 2910 nM
IC50 (LB2518-MEL): 3710 nM
IC50 (KGN): 622 nM
IC50 (LAN-6): 3690 nM
IC50 (HCC2157): > 5120 nM
IC50 (C8166): > 5120 nM
IC50 (COLO-320-HSR): 894 nM
IC50 (A253 cell line): 3710 nM
IC50 (EW-16): 1620 nM
IC50 (COLO-824): > 5120 nM
IC50 (HCC1187): > 5120 nM
IC50 (TGW): > 5120 nM
IC50 (Calu-6): 427 nM
IC50 (no-11): 4930 nM
IC50 (A704): > 5120 nM
IC50 (VA-ES-BJ): 804 nM
IC50 (HT-144): 310 nM
IC50 (KY821): 1780 nM
IC50 (SK-N-FI): 3160 nM
IC50 (A388): 620 nM
IC50 (JAR): 941 nM
IC50 (KM12): 4670 nM
IC50 (TE-11): 451 nM
IC50 (NCI-H1304): > 5120 nM
IC50 (SCH): 2500 nM
IC50 (HCC2218): > 5120 nM
IC50 (SNU-C2B): 1280 nM
IC50 (SJSA-1): 750 nM
IC50 (EOL1): 1190 nM
IC50 (CTB-1): 3200 nM
IC50 (NCI-H2126): 2110 nM
IC50 (Becker): 616 nM
IC50 (RXF 393): > 5120 nM

Cc1ccc(-c2c(C(=O)CCl)n(CCCO)c3ncnc(N)c23)cc1
IC50 (D-263MG): > 4000 nM
IC50 (ES6): > 4000 nM
IC50 (CAS-1): > 4000 nM
IC50 (HEL): > 4000 nM
IC50 (LU-134-A): > 4000 nM
IC50 (PSN1): 2770 nM
IC50 (CTV-1): > 4000 nM
IC50 (ALL-PO): > 4000 nM
IC50 (MS-1): > 4000 nM
IC50 (MFH-ino): > 4000 nM
IC50 (SF-126): > 4000 nM
IC50 (BT-474): > 4000 nM
IC50 (SNU1): > 4000 nM
IC50 (NMC-G1): > 4000 nM
IC50 (TE-6): > 4000 nM
IC50 (NCI-H526): > 4000 nM
IC50 (SNU-5): > 4000 nM
IC50 (LU-139): > 4000 nM
IC50 (LB2518-MEL): > 4000 nM
IC50 (KGN): > 4000 nM
IC50 (LAN-6): > 4000 nM
IC50 (HCC2157): > 4000 nM
IC50 (C8166): > 4000 nM
IC50 (COLO-320-HSR): > 4000 nM
IC50 (A253 cell line): > 4000 nM
IC50 (EW-16): > 4000 nM
IC50 (COLO-824): > 4000 nM
IC50 (HCC1187): > 4000 nM
IC50 (TGW): > 4000 nM
IC50 (Calu-6): > 4000 nM
IC50 (no-11): > 4000 nM
IC50 (A704): > 4000 nM
IC50 (VA-ES-BJ): > 4000 nM
IC50 (HT-144): 3280 nM
IC50 (KY821): 3680 nM
IC50 (SK-N-FI): > 4000 nM
IC50 (A388): 2190 nM
IC50 (JAR): > 4000 nM
IC50 (KM12): > 4000 nM
IC50 (TE-11): > 4000 nM
IC50 (NCI-H1304): > 4000 nM
IC50 (SCH): > 4000 nM
IC50 (HCC2218): > 4000 nM
IC50 (SNU-C2B): > 4000 nM
IC50 (SJSA-1): > 4000 nM
IC50 (EOL1): > 4000 nM
IC50 (CTB-1): 1620 nM
IC50 (NCI-H2126): > 4000 nM
IC50 (Becker): > 4000 nM
IC50 (RXF 393): > 4000 nM

CC(=O)O[C@H]1C(=O)[C@@]2(C)[C@H]([C@H](OC(=O)c3ccccc3)[C@]3(O)C[C@H](OC(=O)[C@H](O)[C@@H](NC(=O)c4ccccc4)c4ccccc4)C(C)=C1C3(C)C)[C@]1(OC(C)=O)CO[C@@H]1C[C@@H]2O [PACLITAXEL]
IC50 (D-263MG): > 102 nM
IC50 (ES6): 95.9 nM
IC50 (CAS-1): > 102 nM
IC50 (HEL): 41.4 nM
IC50 (LU-134-A): 47.7 nM
IC50 (PSN1): 1.3 nM
IC50 (CTV-1): 14.8 nM
IC50 (ALL-PO): 6.3 nM
IC50 (MS-1): > 102 nM
IC50 (MFH-ino): 2.68 nM
IC50 (SF-126): 61.3 nM
IC50 (BT-474): > 102 nM
IC50 (SNU1): > 102 nM
IC50 (NMC-G1): 34.5 nM
IC50 (TE-6): 5.7 nM
IC50 (NCI-H526): 28.9 nM
IC50 (SNU-5): 17 nM
IC50 (LU-139): 59.9 nM
IC50 (LB2518-MEL): 81.4 nM
IC50 (KGN): 7.12 nM
IC50 (LAN-6): > 102 nM
IC50 (HCC2157): > 102 nM
IC50 (C8166): > 102 nM
IC50 (COLO-320-HSR): > 102 nM
IC50 (A253 cell line): 17.4 nM
IC50 (EW-16): 6.94 nM
IC50 (COLO-824): > 102 nM
IC50 (HCC1187): 19.2 nM
IC50 (TGW): 86.1 nM
IC50 (Calu-6): 10.1 nM
IC50 (no-11): 34.8 nM
IC50 (A704): > 102 nM
IC50 (VA-ES-BJ): 3 nM
IC50 (HT-144): 8 nM
IC50 (KY821): 27 nM
IC50 (SK-N-FI): > 102 nM
IC50 (A388): 8.74 nM
IC50 (JAR): 29.5 nM
IC50 (KM12): 6.37 nM
IC50 (TE-11): 1.23 nM
IC50 (NCI-H1304): 52.1 nM
IC50 (SCH): > 102 nM
IC50 (HCC2218): > 102 nM
IC50 (SNU-C2B): 15 nM
IC50 (SJSA-1): 17.7 nM
IC50 (EOL1): 26.9 nM
IC50 (CTB-1): 78.1 nM
IC50 (NCI-H2126): 27.7 nM
IC50 (Becker): 7.2 nM
IC50 (RXF 393): 12.6 nM
